According to ChEMBL document CHEMBL1201862, “PubChem BioAssay data set” (2004):
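Exposure lasted 48 hours, with cells grown in 96-well plates and compounds tested at five concentrations. GI50 marks 50% less growth.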 Activity calls are given as the source filed them. No stated cut-off is given here; in the data, active = GI50 up to about 1.1 µM and inactive = higher.

Experiments:
Assay in all cases: growth of human tumour cells (NCI), 48 h
CAKI-1 = system: CAKI-1
DMS-114 = system: DMS-114
EKVX = system: EKVX
HCC 2998 = system: HCC 2998
HCT-116 = system: HCT-116
HL-60 = system: HL-60
KM12 = system: KM12
LOX IMVI = system: LOX IMVI
LXFL 529 = system: LXFL 529
MOLT-4 = system: MOLT-4
Malme-3M = system: Malme-3M
NCI/ADR-RES = system: NCI/ADR-RES
OVCAR-5 = system: OVCAR-5
SK-MEL-2 = system: SK-MEL-2
SK-MEL-5 = system: SK-MEL-5
SK-OV-3 = system: SK-OV-3
SNB-75 = system: SNB-75
SW-620 = system: SW-620
T47D = system: T47D
XF498 = system: XF498

SMILES	GI50 (CAKI-1)	GI50 (DMS-114)	GI50 (EKVX)	GI50 (HCC 2998)	GI50 (HCT-116)	GI50 (HL-60)	GI50 (KM12)	GI50 (LOX IMVI)	GI50 (LXFL 529)	GI50 (MOLT-4)	GI50 (Malme-3M)	GI50 (NCI/ADR-RES)	GI50 (OVCAR-5)	GI50 (SK-MEL-2)	GI50 (SK-MEL-5)	GI50 (SK-OV-3)	GI50 (SNB-75)	GI50 (SW-620)	GI50 (T47D)	GI50 (XF498)
COc1ccc(N2C(=O)[C@H]3[C@H]4CC(C(C)(C)C)CC[C@H]4c4c(n(C)c5ccccc45)[C@H]3C2=O)cc1 (stereo not given in full)	> 100 µM (inactive)	> 100 µM (inactive)	> 46.5 µM (inactive)	5.62 µM (inactive)	> 100 µM (inactive)	> 90.6 µM (inactive)	> 10 µM (inactive)	> 100 µM (inactive)	> 100 µM (inactive)	> 100 µM (inactive)	> 100 µM (inactive)	> 100 µM (inactive)	> 10 µM (inactive)	> 4.65 µM (inactive)	4.65 µM (inactive)	> 100 µM (inactive)	> 87.7 µM (inactive)	> 100 µM (inactive)	> 100 µM (inactive)	> 100 µM (inactive)
CN(C)c1nc(N(C)C)nc(N(C)C)n1 [ALTRETAMINE]	130 µM (inactive)	> 148 µM (inactive)	> 150 µM (inactive)	> 123 µM (inactive)	> 150 µM (inactive)	> 142 µM (inactive)	> 150 µM (inactive)	> 145 µM (inactive)	> 150 µM (inactive)	133 µM (inactive)	> 147 µM (inactive)	> 114 µM (inactive)	> 147 µM (inactive)	> 150 µM (inactive)	136 µM (inactive)	> 150 µM (inactive)	130 µM (inactive)	> 150 µM (inactive)	> 150 µM (inactive)	109 µM (inactive)
Cc1cc2c3ccccc3n(C)c2c2c1C(=O)C=CC2=O	14.3 µM (inactive)	6.05 µM (inactive)	12 µM (inactive)	20.2 µM (inactive)	20 µM (inactive)	5.24 µM (inactive)	17 µM (inactive)	17.5 µM (inactive)	3.99 µM (inactive)	6.76 µM (inactive)	20 µM (inactive)	33.9 µM (inactive)	21.1 µM (inactive)	18.1 µM (inactive)	27.4 µM (inactive)	21.1 µM (inactive)	27 µM (inactive)	10.7 µM (inactive)	3.39 µM (inactive)	16.3 µM (inactive)
CC(=O)O[C@H]1C(=O)[C@@]2(C)C([C@H](OC(=O)c3ccccc3)[C@]3(O)C[C@H](OC(=O)[C@H](O)[C@@H](NC(=O)c4ccc(Cl)cc4)c4ccccc4)C(C)=C1C3(C)C)C1(OC(C)=O)CO[C@@H]1C[C@@H]2O (stereo not given in full)	3.06 µM (inactive)	< 0.01 µM (active)	9.2 µM (inactive)	< 0.01 µM (active)	0.0499 µM (active)	0.0025 µM (active)	0.0466 µM (active)	< 0.01 µM (active)	< 0.01 µM (active)	21.3 µM (inactive)	0.094 µM (active)	14.9 µM (inactive)	0.104 µM (active)	0.0274 µM (active)	< 0.01 µM (active)	0.0986 µM (active)	0.021 µM (active)	0.0569 µM (active)	0.82 µM (active)	0.0303 µM (active)
